Data from patent US7601716B2, “Pyridopyrazines and derivatives thereof as ALK and c-Met inhibitors” (Cephalon, Inc., priority 2006, dated 2009).
Counter-ions that a name gives are not always drawn.

Key:
NPM-ALK = molecular target: T1, NPM-ALK (Homo sapiens, UniProt Q9UM73); assay: ALK Cellular Assay (phospho-NPM-ALK immunoblot / ALK tyrosine phosphorylation ELISA); assay type: cell-based; conditions: for inhibition at 1 µM: NPM-ALK, 1 μM compound, read-out: ALK Cellular Activity Inhibition Score at 1 μM
T1 construct: a fusion protein consisting of nucleophosmin (NMP) and the intracellular domain of ALK; the other entry of the earlier key: NPM1 (P06748, Nucleophosmin)
Experimental: Immunoblotting of phospho-NPM-ALK and total NPM-ALK from cell lysates was carried out according to the protocols provided by the antibody suppliers. In brief, after treatment of Example compounds, cells were lysed in Frak lysis buffer [10 mM Tris, pH 7.5, 1% Triton X-100, 50 mM sodium chloride, 20 mM sodium fluoride, 2 mM sodium pyrophosphate, 0.1% BSA, plus freshly prepared 1 mM activated sodium vanadate, 1 mM dithiothreitol (#165680050, ARCOS Organics, Geel, Belgium), and 1 mM PMSF (#837091, Boehringer Mannheim Biochemicals, Indianapolis, Ind.), protease inhibitors cocktail III (#539134-1Set, Calbiochem, 1:100 dilution)]. After brief sonication, the lysates were cleared by centrifugation, mixed with sample buffer and subjected to SDS-PAGE. Following transfer to membranes, the membranes were blotted with either rabbit phospho-NPM-ALK(Y664) (Cat^#3341) or ALK antibody (Cat^#3342) from Cell Signaling Technology (Beverly, Mass.), and then the HRP-conjugated goat anti-rabbit antibodies (Santa Cruz, Calif.) after washed in TBS/0.2% Tween-20. The protein bands were visualized with ECL Western Blotting detection reagents (RPN2106, Amersham Biosciences, Buckinghamshire, UK) and quantitated with gel-pro analyzer 3.1 software.
To measure ALK tyrosine phosphorylation in cells with an ELISA assay, fluoronunc plates (Cat^#437796, Nalge Nunc, Rochester, N.Y.) were pre-coated with goat anti-mouse IgG, and incubated with the capture mouse ALK antibody (Cat^#35-4300, Zymed, Seattle, Wash.) diluted 1:1000 in Superblock (Pierce, Rockford, Ill.). Following blocking, cell lysates were added to plates and incubated overnight at 4° C. Plates were incubated with the detecting antibody, anti-phospho-ALK (Y664) (Cell Signaling Technology), diluted at 1:2000, followed by incubation with goat anti-rabbit-IgG alkaline phosphatase to amplify the detection. Wells were exposed to the fluorogenic substrate 4-MeUP (#3368-04-5, Calbiochem) and the signal quantified using a CytoFluor® (series 4000) Fluorescence Multi-Well Plate Reader (Applied Biosystems, Foster City, Calif.).

[1] = molecular target: baculovirus-expressed ALK (Homo sapiens, UniProt Q9UM73); assay: ALK Kinase Assay (ELISA/TRF, PLC-γ substrate); assay type: biochemical; conditions: read-out: ALK Kinase Inhibition (IC50); also: 1 µM ATP (Km level)
Outline: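 Plates coated with GST–PLC-γ fusion substrate (10 μg/mL in TBS); reaction started with 30 ng/ml ALK, run 15 minutes at 37° C. Phosphotyrosine detected by Eu-N1 PT66 antibody (1 hour, 37° C) and time-resolved fluorescence after enhancement. IC50 from sigmoidal variable-slope fit of percent inhibition versus log concentration.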

[2] = molecular target: T2, c-Met (cytoplasmic domain) (Homo sapiens, UniProt P08581); assay: c-Met Kinase Assay (ELISA/TRF, PLC-γ substrate); assay type: biochemical; conditions: 3 μM ATP (Km level); read-out: c-Met Kinase Inhibition (IC50)
T2 construct: Reactions were initiated with 30 ng/mL c-Met (cytoplasmic domain, Invitrogen Corporation #PV3143); purchased Invitrogen Corporation PV3143
Outline: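 c-Met cytoplasmic domain (30 ng/mL) phosphorylates plate-coated GST–PLC-γ for 15 min at 37 °C. Phosphotyrosine detected with Eu-labeled PT66 antibody by time-resolved fluorescence. IC50 from variable-slope sigmoidal fit of % inhibition vs log concentration.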

[3] = molecular target: T3, c-Met (phospho-c-Met) in HT29 cells (Homo sapiens, UniProt P08581); assay: c-Met Cellular Activity/Autophosphorylation Assay, HT29 cells; assay type: cell-based
T3 construct: endogenous in cells; host or cells: HT29, A549 (HGF-stimulated), GTL-16
Experimental: (§1) HT29 and GTL-16 cells were serum starved for one hour in media containing 0.05% BSA and varying concentrations of Example compounds (1-10 μM). A549 cells were serum starved overnight in media containing 0.05% BSA then treated for one hour with Example compounds followed by a 15 minute stimulation with 50 ng/mL HGF (Peprotech, Rocky Hill, N.J.), respectively. Samples were resolved by electrophoresis on a 3-8% Tris-Acetate gel (40 ma/gel) and then transferred to a nitrocellulose membrane. Membranes were blocked for one hour at room temperature in Odyssey Blocking Buffer (Licor #927-40000) diluted 1:1 with 1×TBS. Membranes were then co-incubated overnight at 4° C. with primary antibodies [total Met (Cell Signaling, #3127) and Phospho-Met (Biosource, #44-888G) 1:1000 each in Odyssey Blocking Buffer diluted 1:1 with 1×TBS-T 0.05%]. The next day, membranes were washed and co-incubated with secondary antibodies [Goat anti mouse IRDye800 (Rockland, #610-132-121) and Goat anti rabbit Alexa fluor 700 (Molecular Probes, #A21038) 1:10,000] in Odyssey Blocking Buffer diluted 1:1 with 1×TBS-T 0.05% for one hour at room temperature protected from light. Blots were then washed and read on the Odyssey Infrared Imager. Total c-Met signal was visualized at 800 nm detection and phospho-c-Met signal was visualized at 700 nm detection.

[4] = molecular target: T4, c-Met (phospho-c-Met) in A549 cells (Homo sapiens, UniProt P08581); assay: c-Met Cellular Activity/Autophosphorylation Assay, A549 cells (HGF stimulated); assay type: cell-based; conditions: 50 ng/mL HGF
T4 construct: endogenous in cells; host or cells: HT29, A549 (HGF-stimulated), GTL-16
Experimental: as §1

T1 sequence (Q9UM73 with tags, fused parts or gaps): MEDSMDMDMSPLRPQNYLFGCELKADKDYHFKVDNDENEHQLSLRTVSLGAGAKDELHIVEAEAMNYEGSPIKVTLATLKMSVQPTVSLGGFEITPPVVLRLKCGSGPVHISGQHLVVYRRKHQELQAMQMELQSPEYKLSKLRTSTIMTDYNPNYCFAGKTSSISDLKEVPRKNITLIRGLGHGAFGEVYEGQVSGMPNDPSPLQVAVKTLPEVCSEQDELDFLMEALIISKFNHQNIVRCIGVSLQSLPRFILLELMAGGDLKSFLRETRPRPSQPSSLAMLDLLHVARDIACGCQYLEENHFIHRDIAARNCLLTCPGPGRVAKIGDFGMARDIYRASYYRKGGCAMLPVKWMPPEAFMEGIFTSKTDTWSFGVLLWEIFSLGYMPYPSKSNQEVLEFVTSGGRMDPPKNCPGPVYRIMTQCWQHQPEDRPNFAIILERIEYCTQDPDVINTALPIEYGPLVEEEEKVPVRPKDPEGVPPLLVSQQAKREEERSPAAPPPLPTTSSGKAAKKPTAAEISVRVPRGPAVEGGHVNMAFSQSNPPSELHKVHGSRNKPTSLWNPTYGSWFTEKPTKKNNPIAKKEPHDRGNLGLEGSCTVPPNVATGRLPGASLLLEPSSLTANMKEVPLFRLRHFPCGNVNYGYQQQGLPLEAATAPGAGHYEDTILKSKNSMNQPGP
T2 sequence (P08581 956-1390 limits assumed): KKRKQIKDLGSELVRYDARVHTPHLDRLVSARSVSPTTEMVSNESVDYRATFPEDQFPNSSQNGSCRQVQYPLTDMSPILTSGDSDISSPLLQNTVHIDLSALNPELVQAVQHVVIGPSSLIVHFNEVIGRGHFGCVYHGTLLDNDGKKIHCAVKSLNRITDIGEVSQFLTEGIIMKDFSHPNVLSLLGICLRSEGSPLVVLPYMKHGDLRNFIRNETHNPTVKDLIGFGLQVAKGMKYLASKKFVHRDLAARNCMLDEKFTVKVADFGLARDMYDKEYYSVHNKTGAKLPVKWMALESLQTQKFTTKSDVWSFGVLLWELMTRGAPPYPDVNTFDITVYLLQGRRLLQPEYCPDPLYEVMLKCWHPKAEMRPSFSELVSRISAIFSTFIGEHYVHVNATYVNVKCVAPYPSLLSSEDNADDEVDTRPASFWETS
baculovirus-expressed ALK, sequence (Q9UM73 19-1620): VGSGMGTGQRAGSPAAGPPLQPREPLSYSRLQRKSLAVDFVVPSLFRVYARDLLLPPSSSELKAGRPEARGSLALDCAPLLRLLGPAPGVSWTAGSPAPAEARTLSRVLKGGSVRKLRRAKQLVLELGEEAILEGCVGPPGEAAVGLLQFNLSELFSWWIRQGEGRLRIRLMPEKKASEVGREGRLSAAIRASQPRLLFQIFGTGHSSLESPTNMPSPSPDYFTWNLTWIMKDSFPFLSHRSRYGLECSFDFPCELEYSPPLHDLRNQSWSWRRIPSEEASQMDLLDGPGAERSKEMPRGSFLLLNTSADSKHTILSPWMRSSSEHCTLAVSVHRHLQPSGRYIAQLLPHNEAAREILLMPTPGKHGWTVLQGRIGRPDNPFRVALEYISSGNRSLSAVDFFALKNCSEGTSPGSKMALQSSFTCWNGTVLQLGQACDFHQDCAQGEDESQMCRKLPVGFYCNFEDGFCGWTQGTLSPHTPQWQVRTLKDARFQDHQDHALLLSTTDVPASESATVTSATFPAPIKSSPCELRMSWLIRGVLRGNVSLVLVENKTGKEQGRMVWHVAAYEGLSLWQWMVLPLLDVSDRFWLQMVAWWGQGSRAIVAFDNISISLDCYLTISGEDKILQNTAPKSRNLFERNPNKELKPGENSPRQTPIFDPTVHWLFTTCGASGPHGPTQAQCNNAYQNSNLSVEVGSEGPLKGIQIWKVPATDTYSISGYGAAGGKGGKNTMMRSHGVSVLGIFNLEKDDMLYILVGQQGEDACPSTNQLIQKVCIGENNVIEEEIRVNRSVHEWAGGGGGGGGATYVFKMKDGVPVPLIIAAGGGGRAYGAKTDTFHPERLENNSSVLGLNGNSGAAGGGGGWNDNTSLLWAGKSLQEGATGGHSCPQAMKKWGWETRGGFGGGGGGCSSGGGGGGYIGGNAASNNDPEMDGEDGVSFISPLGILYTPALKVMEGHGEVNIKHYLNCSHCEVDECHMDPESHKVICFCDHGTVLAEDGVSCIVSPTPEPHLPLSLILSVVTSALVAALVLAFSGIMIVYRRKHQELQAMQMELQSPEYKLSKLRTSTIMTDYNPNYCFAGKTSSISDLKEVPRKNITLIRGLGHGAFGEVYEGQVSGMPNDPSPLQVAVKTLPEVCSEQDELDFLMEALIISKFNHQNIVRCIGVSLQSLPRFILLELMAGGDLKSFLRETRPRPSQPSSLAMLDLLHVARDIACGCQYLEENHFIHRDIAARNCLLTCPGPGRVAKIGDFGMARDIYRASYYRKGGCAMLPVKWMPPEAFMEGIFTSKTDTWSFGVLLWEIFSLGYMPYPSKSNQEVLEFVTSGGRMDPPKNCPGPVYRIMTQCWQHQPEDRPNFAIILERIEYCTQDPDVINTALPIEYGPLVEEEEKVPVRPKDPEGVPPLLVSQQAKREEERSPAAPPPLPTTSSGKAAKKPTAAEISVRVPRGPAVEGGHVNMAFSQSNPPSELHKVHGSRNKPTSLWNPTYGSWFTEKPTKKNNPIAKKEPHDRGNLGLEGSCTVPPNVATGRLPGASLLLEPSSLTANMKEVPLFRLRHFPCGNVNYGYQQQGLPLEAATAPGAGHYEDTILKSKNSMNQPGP
T3 sequence (P08581 25-1390): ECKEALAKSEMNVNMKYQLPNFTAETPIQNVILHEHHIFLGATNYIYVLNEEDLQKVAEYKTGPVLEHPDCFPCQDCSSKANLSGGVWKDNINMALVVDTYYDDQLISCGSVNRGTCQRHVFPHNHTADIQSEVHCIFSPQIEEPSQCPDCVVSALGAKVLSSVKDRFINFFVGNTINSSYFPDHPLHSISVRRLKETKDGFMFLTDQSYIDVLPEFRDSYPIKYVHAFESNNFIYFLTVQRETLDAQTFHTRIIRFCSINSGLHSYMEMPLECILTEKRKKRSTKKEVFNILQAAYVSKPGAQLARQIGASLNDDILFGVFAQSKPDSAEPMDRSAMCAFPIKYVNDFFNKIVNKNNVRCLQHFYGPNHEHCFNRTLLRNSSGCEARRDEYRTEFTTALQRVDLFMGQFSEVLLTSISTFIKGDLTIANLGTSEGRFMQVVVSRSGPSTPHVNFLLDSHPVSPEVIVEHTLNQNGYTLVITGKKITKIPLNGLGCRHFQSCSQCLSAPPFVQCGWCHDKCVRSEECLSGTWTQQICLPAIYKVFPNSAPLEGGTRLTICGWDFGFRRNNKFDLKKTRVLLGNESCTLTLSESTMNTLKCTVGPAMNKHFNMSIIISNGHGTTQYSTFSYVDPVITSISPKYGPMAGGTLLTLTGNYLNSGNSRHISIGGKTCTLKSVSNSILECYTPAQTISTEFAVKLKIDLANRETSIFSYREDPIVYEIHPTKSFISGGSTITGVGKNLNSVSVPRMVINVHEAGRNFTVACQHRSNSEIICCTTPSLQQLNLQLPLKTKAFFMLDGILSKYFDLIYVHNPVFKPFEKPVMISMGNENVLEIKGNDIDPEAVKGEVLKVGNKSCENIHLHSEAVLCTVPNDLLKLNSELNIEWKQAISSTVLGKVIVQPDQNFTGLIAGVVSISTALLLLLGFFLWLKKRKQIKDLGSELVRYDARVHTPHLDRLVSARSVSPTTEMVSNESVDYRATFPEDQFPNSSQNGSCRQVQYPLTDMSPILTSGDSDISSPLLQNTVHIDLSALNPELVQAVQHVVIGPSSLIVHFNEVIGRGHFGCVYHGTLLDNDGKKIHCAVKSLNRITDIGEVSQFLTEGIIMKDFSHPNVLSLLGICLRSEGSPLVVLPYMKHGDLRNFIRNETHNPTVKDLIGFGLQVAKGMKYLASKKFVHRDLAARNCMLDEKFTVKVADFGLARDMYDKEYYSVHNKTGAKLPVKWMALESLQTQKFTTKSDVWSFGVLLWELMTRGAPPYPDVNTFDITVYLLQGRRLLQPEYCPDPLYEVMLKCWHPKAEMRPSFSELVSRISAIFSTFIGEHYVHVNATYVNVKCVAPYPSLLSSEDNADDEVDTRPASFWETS

| SMILES | inhibition at 1 µM (NPM-ALK) [%] | IC50 [1] [nM] | melting point | IC50 [2] [nM] | IC50 (NPM-ALK) [nM] | inhibition at 1 µM ([3]; HT-29, 1 μM compound, read-out: c-Met autophosphorylation inhibition score, HT29 Cells (1 μM)) [%] | inhibition at 3 µM ([3]; HT-29, 3 μM compound, read-out: c-Met autophosphorylation inhibition score, HT29 Cells (3 μM)) [%] | inhibition at 1 µM ([4]; 1 μM compound, read-out: c-Met autophosphorylation inhibition score, A549 Cells (1 μM)) [%] | inhibition at 3 µM ([4]; 3 μM compound, read-out: c-Met autophosphorylation inhibition score, A549 Cells (3 μM)) [%] |
| --- | --- | --- | --- | --- | --- | --- | --- | --- | --- |
| O=C(O)c1ccc(-c2cnc3c(c2)N(Cc2c(F)ccc(F)c2Cl)C(=O)CN3)cc1 [Example 6, 4-[1-(2-Chloro-3,6-difluorobenzyl)-2-oxo-1,2,3,4-tetrahydropyrido[2,3-b]pyrazin-7-yl]benzoic acid] | 0 to 25 | 100 to 1000 | > 300 °C | 10000 to 100000 |  |  |  |  |  |
| O=C(c1ccc(-c2cnc3c(c2)N(Cc2ccccc2)CCN3)cc1)N1CCC[C@H]1CN1CCCC1 [Example 38, [4-(1-Benzyl-1,2,3,4-tetrahydropyrido[2,3-b]pyrazin-7-yl)phenyl]-((S)-2-pyrrolidinylmethylpyrrolidin-1-yl)methanone, trifluoroacetic acid salt] |  | 100 to 1000 |  | 100 to 1000 | 501 to 750 |  |  |  |  |
| O=C1CNc2ncc(-c3ccc(NS(=O)(=O)CCN4CCCC4)cc3)cc2N1Cc1cc(F)ccc1F [Example 48, 2-Pyrrolidin-1-yl-ethanesulfonic acid{4-[1-(2,5-difluorobenzyl)-2-oxo-1,2,3,4-tetrahydropyrido[2,3-b]pyrazin-7-yl]phenyl}-amide] | 26 to 50 | 100 to 1000 | > 300 °C | 1000 to 10000 |  |  |  |  |  |
| O=S(=O)(CCN1CCCC1)Nc1ccc(-c2cnc3c(c2)N(Cc2cc(F)ccc2F)CCN3)cc1 [Example 51, 2-Pyrrolidin-1-yl-ethanesulfonic acid{4-[1-(2,5-difluorobenzyl)-1,2,3,4-tetrahydropyrido[2,3-b]pyrazin-7-yl]phenyl}-amide] | 26 to 50 | 100 to 1000 |  | 10000 to 100000 |  |  |  |  |  |
| O=C1CNc2ncc(-c3ccc(C(=O)N4CCC[C@H]4CN4CCCC4)cc3)cc2N1Cc1cc(F)ccc1F [Example 57, 1-(2,5-Difluorobenzyl)-7-[4-((S)-2-[(pyrrolidin-1-yl)methyl]pyrrolidine-1-carbonyl)phenyl]-3,4-dihydro-1H-pyrido[2,3-b]pyrazin-2-one] | 0 to 25 | 100 to 1000 | 125 °C | 100 to 1000 |  |  |  |  |  |
| O=C(NCCN1CCCC1)c1ccc(-c2cnc3c(c2)N(Cc2cc(F)ccc2F)C(=O)CN3)cc1 [Example 58, 4-[1-(2,5-Difluorobenzyl)-2-oxo-1,2,3,4-tetrahydropyrido[2,3-b]pyrazin-7-yl]-N-(2-pyrrolidin-1-yl-ethyl)benzamide] | 0 to 25 | 100 to 1000 | 235 °C (dec.) | 10000 to 100000 |  |  |  |  |  |
| O=C(c1ccc(-c2cnc3c(c2)N(Cc2cc(F)ccc2F)CCN3)cn1)N1CCOCC1 [Example 76, {5-[1-(2,5-Difluorobenzyl)-1,2,3,4-tetrahydropyrido[2,3-b]pyrazin-7-yl]-pyridin-2-yl}morpholin-4-yl-methanone] |  | 100 to 1000 | 111 to 113 °C | 1000 to 10000 |  | 0 to 25 | 26 to 50 | 0 to 25 | 0 to 25 |
| CN(C)CCCCNC(=O)c1ccc(-c2cnc3c(c2)N(Cc2c(Cl)cccc2Cl)C(=O)CN3)cc1 [Example 144, 4-[1-(2,6-Dichlorobenzyl)-2-oxo-1,2,3,4-tetrahydropyrido[2,3-b]pyrazin-7-yl]-N-(4-dimethylaminobutyl)benzamide, trifluoroacetic acid salt] | 0 to 25 | 100 to 1000 |  | 1000 to 10000 |  |  |  |  |  |
| CN(C)CCCCNC(=O)c1cnc2c(c1)N(Cc1cc(Cl)ccc1C(F)(F)F)CCN2 [Example 295, 1-[5-Chloro-2-(trifluoromethyl)benzyl]-1,2,3,4-tetrahydropyrido[2,3-b]pyrazine-7-carboxylic acid [4-(dimethylamino)butyl]amide] |  | < 100 |  | 1000 to 10000 | 251 to 500 |  |  |  |  |

Results, then the molecule that gave them:

| inhibition at 1 µM (NPM-ALK) [%] | IC50 [1] [nM] | melting point | IC50 [2] [nM] | IC50 (NPM-ALK) [nM] | inhibition at 1 µM ([3]; HT-29, 1 μM compound, read-out: c-Met autophosphorylation inhibition score, HT29 Cells (1 μM)) [%] | inhibition at 3 µM ([3]; HT-29, 3 μM compound, read-out: c-Met autophosphorylation inhibition score, HT29 Cells (3 μM)) [%] | inhibition at 1 µM ([4]; 1 μM compound, read-out: c-Met autophosphorylation inhibition score, A549 Cells (1 μM)) [%] | inhibition at 3 µM ([4]; 3 μM compound, read-out: c-Met autophosphorylation inhibition score, A549 Cells (3 μM)) [%] | SMILES |
| --- | --- | --- | --- | --- | --- | --- | --- | --- | --- |
|  | < 100 | 143 to 144 °C | 1000 to 10000 | ≤ 250 |  |  |  |  | O=C(c1ccc(-c2cnc3c(c2)N(Cc2cc(F)ccc2F)CCN3)cc1)N1CCC[C@H]1CN1CCCC1 [Example 65, {4-[1-(2,5-Difluorobenzyl)-1,2,3,4-tetrahydropyrido[2,3-b]pyrazin-7-yl]phenyl}-((S)-2-((pyrrolidin-1-yl)methyl)pyrrolidin-1-yl)methanone] |
|  | < 100 |  | 1000 to 10000 | 751 to 1000 |  |  |  |  | Fc1ccc(F)c(CN2CCNc3ncc(-c4ccc(N5CCOCC5)nc4)cc32)c1Cl [Example 105, 1-(2-Chloro-3,6-difluorobenzyl)-7-(6-morpholin-4-yl-pyridin-3-yl)-1,2,3,4-tetrahydropyrido[2,3-b]pyrazine] |
|  | < 100 |  | 1000 to 10000 | 251 to 500 |  |  |  |  | CN1CCN(C(=O)c2ccc(-c3cnc4c(c3)N(Cc3cc(Cl)ccc3Cl)CCN4)cc2)CC1 [Example 132, {4-[1-(2,5-Dichlorobenzyl)-1,2,3,4-tetrahydropyrido[2,3-b]pyrazin-7-yl]phenyl}-(4-methylpiperazin-1-yl)methanone] |
|  | < 100 |  | 10000 to 100000 | 251 to 500 |  |  |  |  | CC(c1cc(F)ccc1F)N1CCNc2ncc(-c3ccc(C(=O)N4CCC[C@H]4CN4CCCC4)cc3)cc21 (stereo partly drawn) [Example 154, S-(4-{1-[1-(2,5-Difluorophenyl)ethyl]-1,2,3,4-tetrahydropyrido[2,3-b]pyrazin-7-yl}phenyl)-{2-[(pyrrolidin-1-yl)methyl]pyrrolidin-1-yl}methanone] |
|  | < 100 |  | 1000 to 10000 | 251 to 500 |  |  |  |  | CN1CCN(c2ccc(-c3cnc4c(c3)N(Cc3cc(Cl)ccc3Cl)CCN4)cn2)CC1 [Example 180, 1-(2,5-Dichlorobenzyl)-7-[6-(4-methylpiperazin-1-yl)pyridin-3-yl]-1,2,3,4-tetrahydropyrido[2,3-b]pyrazine] |
|  | < 100 |  | 100 to 1000 | ≤ 250 |  |  |  |  | Fc1ccc(F)c(CN2CCNc3ncc(-c4cccc(N5CCOCC5)c4)cc32)c1Cl [Example 189, 1-(2-Chloro-3,6-difluorobenzyl)-7-(3-morpholin-4-yl-phenyl)-1,2,3,4-tetrahydropyrido[2,3-b]pyrazine] |
|  | < 100 |  | 1000 to 10000 | 251 to 500 |  |  |  |  | COC1CCN(C(=O)c2ccc(-c3cnc4c(c3)N(Cc3cc(Cl)ccc3C(F)(F)F)CCN4)cc2)CC1 [Example 205] |
